{"source": "patent US9676997B2", "about": "“Compositions and methods for stabilizing luminogenic substrates” (Promega Corporation, priority 2014, dated 2017)", "key": {"[1]": {"experiment": "Stability of 1.25 mM coelenterazine in 50% ethanol and 50% propylene glycol with or without 225 mM ATT, HPLC and Arrhenius plots", "format": "physicochemical", "details": "225 mM ATT, over time at different temperatures", "procedure": "The stability of coelenterazine in the presence and absence of ATT was measured over time at different temperatures. Specifically, 1.25 mM coelenterazine was present in a solution of 50% ethanol and 50% propylene glycol (i.e., the solution without ATT) or a solution of 50% ethanol and 50% propylene glycol with 225 mM ATT (i.e., the solution with ATT). These two solutions were incubated at −20° C., room temperature (RT), 40° C., or 60° C. and analyzed at 0 days, 1 day, 3 days, 7 days, 15 days, and 30 days.\nFollowing incubation, high performance liquid chromatography (HPLC) was utilized to identify the components of the respective solutions at each time point. Specifically, an Agilent 1100 HPLC instrument was used and equipped with a quaternary pump, thermostatted autosampler and column compartment, and a G1311B diode-array detector. The column used was a Synergi-MAX-RP (Phenomenex, Torrance, Calif.) 100 AÅ 50×4.6 2.5 μm. The run on the HPLC was a gradient run with 0.1% TFA in water and acetonitrile. Absorbance was measured at 262 nanometers (nm). Standards of coelenterazine and its known degradants were run to confirm both the retention time and absorbance trace. 5 μl of each solution was injected and the retention time of coelenterazine was 3.9 minutes at room temperature.\nThe results of the HPLC analysis are shown below in Tables 1 and 2 and FIGS. 1A and 1B, in which the values are reported as relative peak area percentage at 262 nm (i.e., the lamba max of the substrate). […] In each of FIGS. 1A and 1B, diamond is 1.25 mM coelenterazine incubated over time with or without 225 mM ATT, respectively, at −20° C., triangle is 1.25 mM coelenterazine incubated over time with or without 225 mM ATT, respectively, at room temperature (RT), star is 1.25 mM coelenterazine incubated over time with or without 225 mM ATT, respectively, at 40° C., and cross is 1.25 mM coelenterazine incubated over time with or without 225 mM ATT, respectively, at 60° C.\nFrom the HPLC analysis, the half-life of coelenterazine in the presence of ATT at 40° C. and 60° C. was calculated to be 23 days and 5 days, respectively, while the half-life of coelenterazine in the absence of ATT at 40° C. and 60° C. was calculated to be 9.5 days and 2 days, respectively (see Table 3 below).\nAdditionally, Arrhenius plots were generated for coelenterazine in the presence and absence of ATT to calculate the half-life of coelenterazine at various temperatures. The Arrhenius equation is as follows: […]\nIn FIG. 7, the slope was −8636.59, the intercept was 24.1199, and R^2 was 0.9983.\nIn FIG. 8, the slope was −7382.51, the intercept was 21.2598, and R^2 was 0.9570."}, "[2]": {"experiment": "Stability of 2.3 mM furimazine at 37° C. in the dark with or without 200 mM thionucleoside, luminescence with NANOLUC enzyme", "format": "physicochemical", "details": "50% propylene glycol:50% ethanol", "procedure": "Specifically, a stock solution of furimazine in 50% propylene glycol:50% ethanol (v/v) was prepared, in which the final concentration of furimazine by absorbance was 4.6 mM. The furimazine stock solution was then diluted 1:1 in 50% propylene glycol:50% ethanol (v/v) to create a control solution without the additives ATT, TAK-0014 and TAK-0002 (i.e., “no additive furimazine” control) and containing 2.3 mM furimazine. 400 mM stock solutions of ATT, TAK-0014 and TAK-0002 were prepared in 50% propylene glycol:50% ethanol (v/v). Each of the ATT, TAK-0014 and TAK-0002 stock solutions was then diluted 1:1 in the 4.6 mM furimazine stock solution to yield solutions containing 200 mM ATT, TAK-0014 or TAK-0002, and 2.3 mM furimazine.\nEach sample was separated into multiple amber tubes and incubated at 37° C. in a dark incubator (i.e., in the absence of light). Aliquots were taken from each sample at various time points and stored at −20° C. in the dark (i.e., in the absence of light) until all time points were collected.\nTo measure luminescence in the aliquots, each aliquot was diluted 1:50 in buffer (NANOGLO buffer, Promega Corporation) to yield 46 μM furimazine. These diluted aliquots were further diluted 1:10 in buffer (NANOGLO buffer, Promega Corporation) to yield 4.6 μM furimazine. 504 of each dilution (i.e., the twice diluted (0.1) aliquots) was mixed with 504, of CO2-independent media+10% fetal bovine serum (FBS) and 0.4 ng/mL luminogenic enzyme (NANOLUC enzyme, Promega Corporation). Luminescence was measured on a luminometer (GLOMAX Multi Plus luminometer, Promega Corporation). Relative light units (RLUs) were normalized for each time point by the RLU value at the 0 days time point. The percent activity from the 0 days time point (i.e., t=0) was plotted against time (days) for each sample as shown in FIG. 15A. In FIG. 15A, B-ATT denoted TAK-0002 and E-ATT denoted TAK-0014.\nError in Table 15 was the standard error from a regression calculation and Fz denoted furimazine, B-ATT denoted TAK-0002, and E-ATT denoted TAK-0014."}}}
{"smiles": "Cc1n[nH]c(=S)[nH]c1=O", "note": "[ATT, 6-methyl-3-thioxo-3,4-dihydro-1,2,4-triazin-5(2H)-one]", "values": [{"measurement": "stabilization of coelenterazine against decomposition", "setting": "[1]", "value": "stabilized coelenterazine against decomposition over time at different temperatures"}, {"measurement": "stabilization of furimazine against decomposition in the absence of light", "setting": "[2]", "value": "stabilized furimazine against decomposition in the absence of light"}]}
